Test results taken from US8716303B2, “N-(hetero)aryl-pyrrolidine derivatives of pyrazol-4-yl-pyrrolo[2,3-d]pyrimidines and pyrrol-3-yl-pyrrolo[2,3-d]pyrimidines as janus kinase inhibitors” (Incyte Corporation, priority 2009, dated 2014).
Structures can show the parent of a compound that is named as a salt.

Tests used:
[1] = target: T1, human JAK1 (a.a. 837-1142) (Homo sapiens, UniProt P23458); experiment: In vitro JAK kinase assay (HTRF, phosphorylation of a biotinylated peptide), JAK1; type: biochemical
T1 construct: human JAK1 (a.a. 837-1142); His tag (N); made in house; host or cells: insect cells (baculovirus)
Procedure: (§1) Compounds herein were tested for inhibitory activity of JAK targets according to the following in vitro assay described in Park et al., Analytical Biochemistry 1999, 269, 94-104. The catalytic domains of human JAK1 (a.a. 837-1142), Jak2 (a.a. 828-1132) and Jak3 (a.a. 781-1124) with an N-terminal His tag were expressed using baculovirus in insect cells and purified. The catalytic activity of JAK1, JAK2 or JAK3 was assayed by measuring the phosphorylation of a biotinylated peptide. The phosphorylated peptide was detected by homogenous time resolved fluorescence (HTRF). IC50s of compounds were measured for each kinase in the 40 microL reactions that contain the enzyme, ATP and 500 nM peptide in 50 mM Tris (pH 7.8) buffer with 100 mM NaCl, 5 mM DTT, and 0.1 mg/mL (0.01%) BSA. The ATP concentration in the reactions was 90 μM for Jak1, 30 μM for Jak2 and 3 μM for Jak3 for Km conditions. For the 1 mM IC50 measurements, ATP concentration in the reactions was 1 mM. Reactions were carried out at RT for 1 h and then stopped with 20 μL 45 mM EDTA, 300 nM SA-APC, 6 nM Eu-Py20 in assay buffer (Perkin Elmer, Boston, Mass.). Binding to the Europium labeled antibody took place for 40 min and HTRF signal was measured on a Fusion plate reader (Perkin Elmer, Boston, Mass.).
(§2) Compounds herein were tested for inhibitory activity of JAK1 and JAK2 targets according to the assay of Example A (experiments run at Km or 1 mM as indicated). The symbol “+” indicates an IC50<50 nM; the symbol “++” indicates an IC50≧50 and ≦100 nM; and the symbol “+++” indicates an IC50>100 and ≦500 nM.

[2] = target: T2, Jak2 (a.a. 828-1132) (Homo sapiens, UniProt O60674); experiment: In vitro JAK kinase assay (HTRF, phosphorylation of a biotinylated peptide), JAK2, reported as JAK2/JAK1 ratio; type: biochemical
T2 construct: Jak2 (a.a. 828-1132); His tag (N); made in house; host or cells: insect cells (baculovirus)
Procedure: as §1, §2

[3] = Assay Conditions Km (ATP 90 μM for Jak1)
[4] = Assay Conditions Km (ATP 90 μM for Jak1, 30 μM for Jak2)

T1 sequence (P23458 849-1154): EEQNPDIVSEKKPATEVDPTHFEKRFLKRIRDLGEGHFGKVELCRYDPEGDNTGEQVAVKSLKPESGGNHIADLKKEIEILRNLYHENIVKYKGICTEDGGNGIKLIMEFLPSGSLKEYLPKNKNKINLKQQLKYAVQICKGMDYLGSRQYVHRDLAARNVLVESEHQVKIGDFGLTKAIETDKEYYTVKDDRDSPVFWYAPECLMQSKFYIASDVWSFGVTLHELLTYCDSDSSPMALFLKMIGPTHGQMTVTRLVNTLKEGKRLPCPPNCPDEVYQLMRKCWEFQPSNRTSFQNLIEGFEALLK
T2 sequence (O60674 828-1132): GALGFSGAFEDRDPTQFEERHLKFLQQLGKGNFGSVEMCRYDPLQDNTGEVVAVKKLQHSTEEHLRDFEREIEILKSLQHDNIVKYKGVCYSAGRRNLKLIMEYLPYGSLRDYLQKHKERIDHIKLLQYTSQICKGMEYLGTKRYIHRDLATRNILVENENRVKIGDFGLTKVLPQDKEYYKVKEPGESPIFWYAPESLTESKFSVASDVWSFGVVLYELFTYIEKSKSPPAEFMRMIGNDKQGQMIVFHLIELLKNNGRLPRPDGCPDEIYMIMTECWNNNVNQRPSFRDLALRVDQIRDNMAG

Row | Structure (SMILES) | IC50 ([1]; Assay Conditions 1 mM ATP) | JAK2/JAK1 IC50 ratio ([2]; Assay Conditions 1 mM ATP) | IC50 [1, 3] | JAK2/JAK1 IC50 ratio [2, 4]
1 | N#CCC(C1CCN(c2nccc(C#N)c2C#N)C1)n1cc(-c2ncnc3[nH]ccc23)cn1 (racemic) [Example 39, ±2-(3-{2-cyano-1-[4-(7H-pyrrolo[2,3-d]pyrimidin-4-yl)-1H-pyrazol-1-yl]ethyl}pyrrolidin-1-yl)pyridine-3,4-dicarbonitrile trifluoroacetate] | < 50 nM | 15.5 | – | –
2 | CSc1cccc(N2CCC(C(CC#N)n3cc(-c4ncnc5[nH]ccc45)cn3)C2)c1C#N (racemic) [Example 40, ±2-(3-{2-cyano-1-[4-(7H-pyrrolo[2,3-d]pyrimidin-4-yl)-1H-pyrazol-1-yl]ethyl}pyrrolidin-1-yl)-6-(methylthio)benzonitrile] | < 50 nM | 7.1 | – | –
3 | N#CCC(C1CCN(c2ccc3cccc(Cl)c3n2)C1)n1cc(-c2ncnc3[nH]ccc23)cn1 (racemic) [Example 42, ±3-[1-(8-chloroquinolin-2-yl)pyrrolidin-3-yl]-3-[4-(7H-pyrrolo[2,3-d]pyrimidin-4-yl)-1H-pyrazol-1-yl]propanenitrile] | – | – | < 50 nM | 6.0
4 | CCS(=O)(=O)c1cc(N2CCC(C(CC#N)n3ccc(-c4ncnc5[nH]ccc45)c3)C2)ccn1 (racemic) [Example 148-rac, 3-{1-[2-(ethylsulfonyl)pyridin-4-yl]pyrrolidin-3-yl}-3-[3-(7H-pyrrolo[2,3-d]pyrimidin-4-yl)-1H-pyrrol-1-yl]propanenitrile] | < 50 nM | 4.0 | – | –
5 | N#CCC(C1CCN(c2scnc2C#N)C1)n1ccc(-c2ncnc3[nH]ccc23)c1 (racemic) [Example 149-1, 5-(3-{2-cyano-1-[3-(7H-pyrrolo[2,3-d]pyrimidin-4-yl)-1H-pyrrol-1-yl]ethyl}pyrrolidin-1-yl)-1,3-thiazole-4-carbonitrile] | < 50 nM | 9.9 | – | –
6 | N#CCC(C1CCN(c2scnc2C#N)C1)n1ccc(-c2ncnc3[nH]ccc23)c1 (racemic) [Example 149-2, 5-(3-{2-cyano-1-[3-(7H-pyrrolo[2,3-d]pyrimidin-4-yl)-1H-pyrrol-1-yl]ethyl}pyrrolidin-1-yl)-1,3-thiazole-4-carbonitrile] | < 50 nM | 4.5 | – | –
7 | N#CCC(C1CCN(c2ncc3ccsc3c2C#N)C1)n1ccc(-c2ncnc3[nH]ccc23)c1 (racemic) [Example 176-rac, 6-(3-{2-cyano-1-[3-(7H-pyrrolo[2,3-d]pyrimidin-4-yl)-1H-pyrrol-1-yl]ethyl}pyrrolidin-1-yl)thieno[3,2-c]pyridine-7-carbonitrile] | < 50 nM | 53.3 | – | –
8 | N#CCC(C1CCN(c2cccc(Cl)n2)C1)n1cc(-c2ncnc3[nH]ccc23)cn1 (single isomer, unassigned) [2, Step 2b] | – | – | < 50 nM | 3.7
9 | N#CCC(C1CCN(c2nc3ccccc3o2)C1)n1cc(-c2ncnc3[nH]ccc23)cn1 (single isomer, unassigned) [9, Step 3b] | – | – | < 50 nM | 6.3
10 | N#CCC(n1cc(-c2ncnc3[nH]ccc23)cn1)C1(F)CCN(c2nc3cccnc3o2)C1 (single isomer, unassigned) [31, Step 4a, enantiomer 1] | 50 to 100 nM | 5.6 | – | –
11 | N#CCC(n1cc(-c2ncnc3[nH]ccc23)cn1)C1(F)CCN(c2nc3cccnc3o2)C1 (single isomer, unassigned) [31, Step 4b, enantiomer 1] | 100 to 500 nM | >2.5 | – | –
12 | N#CC[C@@H]([C@H]1CCN(c2nc(Cl)c(F)cc2NC=O)C1)n1cc(-c2ncnc3[nH]ccc23)cn1 [Example 92, N-(2-((S)-3-((S)-1-(4-(7H-pyrrolo[2,3-d]pyrimidin-4-yl)-1H-pyrazol-1-yl)-2-cyanoethyl)pyrrolidin-1-yl)-6-chloro-5-fluoropyridin-3-yl)formamide trifluoroacetate] | < 50 nM | – | – | –

More lines, now with the values ahead:

Row | IC50 ([1]; Assay Conditions 1 mM ATP) | JAK2/JAK1 IC50 ratio ([2]; Assay Conditions 1 mM ATP) | IC50 [1, 3] | JAK2/JAK1 IC50 ratio [2, 4] | Structure (SMILES)
13 | 50 to 100 nM | 6 | – | – | Cn1cc(Cl)nc(N2CCC(C(CC#N)n3cc(-c4ncnc5[nH]ccc45)cn3)C2)c1=O (racemic) [Example 36, ±3-[1-(6-chloro-4-methyl-3-oxo-3,4-dihydropyrazin-2-yl)pyrrolidin-3-yl]-3-[4-(7H-pyrrolo[2,3-d]pyrimidin-4-yl)-1H-pyrazol-1-yl]propanenitrile trifluoroacetate]
14 | < 50 nM | >8.7 | – | – | Cn1ccnc(N2CCC(C(CC#N)n3cc(-c4ncnc5[nH]ccc45)cn3)C2)c1=O (racemic) [Example 37, ±3-[1-(4-methyl-3-oxo-3,4-dihydropyrazin-2-yl)pyrrolidin-3-yl]-3-[4-(7H-pyrrolo[2,3-d]pyrimidin-4-yl)-1H-pyrazol-1-yl]propanenitrile trifluoroacetate]
15 | 50 to 100 nM | 3.3 | – | – | N#CCC(C1CCN(c2nccc(C#N)c2Cl)C1)n1cc(-c2ncnc3[nH]ccc23)cn1 (racemic) [Example 38, ±3-chloro-2-(3-{2-cyano-1-[4-(7H-pyrrolo[2,3-d]pyrimidin-4-yl)-1H-pyrazol-1-yl]ethyl}pyrrolidin-1-yl)isonicotinonitrile trifluoroacetate]
16 | < 50 nM | 11 | – | – | CS(=O)(=O)c1cccc(N2CCC(C(CC#N)n3cc(-c4ncnc5[nH]ccc45)cn3)C2)c1C#N (racemic) [Example 41, ±2-(3-{2-cyano-1-[4-(7H-pyrrolo[2,3-d]pyrimidin-4-yl)-1H-pyrazol-1-yl]ethyl}pyrrolidin-1-yl)-6-(methylsulfonyl)benzonitrile]
17 | < 50 nM | 14.5 | – | – | N#CCC(C1CCN(c2scnc2C#N)C1)n1ccc(-c2ncnc3[nH]ccc23)c1 (racemic) [Example 149-rac, 5-(3-{2-cyano-1-[3-(7H-pyrrolo[2,3-d]pyrimidin-4-yl)-1H-pyrrol-1-yl]ethyl}pyrrolidin-1-yl)-1,3-thiazole-4-carbonitrile]
18 | < 50 nM | 4.5 | – | – | N#CCC(C1CCN(c2ncc3ccoc3c2C#N)C1)n1ccc(-c2ncnc3[nH]ccc23)c1 (racemic) [Example 170-rac, 6-(3-{2-cyano-1-[3-(7H-pyrrolo[2,3-d]pyrimidin-4-yl)-1H-pyrrol-1-yl]ethyl}pyrrolidin-1-yl)furo[3,2-c]pyridine-7-carbonitrile]
19 | < 50 nM | 21.9 | – | – | N#CCC(C1CCN(c2ncc3c(c2C#N)S(=O)(=O)CC3)C1)n1ccc(-c2ncnc3[nH]ccc23)c1 (racemic) [Example 171-rac, 6-(3-{2-cyano-1-[3-(7H-pyrrolo[2,3-d]pyrimidin-4-yl)-1H-pyrrol-1-yl]ethyl}pyrrolidin-1-yl)-2,3-dihydrothieno[3,2-c]pyridine-7-carbonitrile 1,1-dioxide]
20 | – | – | < 50 nM | 3 | N#CCC(C1CCN(c2cncc(Cl)n2)C1)n1cc(-c2ncnc3[nH]ccc23)cn1 (single isomer, unassigned) [1 (rac)]
21 | – | – | < 50 nM | 7.3 | N#CCC(C1CCN(c2cccc(Cl)n2)C1)n1cc(-c2ncnc3[nH]ccc23)cn1 (single isomer, unassigned) [2, Step 2a]
22 | – | – | < 50 nM | 2.3 | N#CCC(C1CCN(c2ccnc(Cl)n2)C1)n1cc(-c2ncnc3[nH]ccc23)cn1 (single isomer, unassigned) [3, Step 2a]
23 | – | – | < 50 nM | 8.5 | N#CCC(C1CCN(c2ccnc(Cl)n2)C1)n1cc(-c2ncnc3[nH]ccc23)cn1 (single isomer, unassigned) [3, Step 2b]
24 | – | – | < 50 nM | 1.9 | N#CCC(C1CCN(c2nc3ccccc3o2)C1)n1cc(-c2ncnc3[nH]ccc23)cn1 (single isomer, unassigned) [9, Step 3a]
25 | 50 to 100 nM | 5.1 | – | – | N#CCC(n1cc(-c2ncnc3[nH]ccc23)cn1)C1(F)CCN(c2nc3cccnc3o2)C1 (single isomer, unassigned) [31, Step 4a, enantiomer 2]
26 | 100 to 500 nM | 0.8 | – | – | N#CCC(n1cc(-c2ncnc3[nH]ccc23)cn1)C1(F)CCN(c2nc3cccnc3o2)C1 (single isomer, unassigned) [31, Step 4b, enantiomer 2]
27 | < 50 nM | – | – | – | N#CC[C@@H]([C@H]1CCN(c2ncc(CC(F)F)nc2C#N)C1)n1cc(-c2ncnc3[nH]ccc23)cn1 [Example 139, 3-((3S)-3-{(1S)-2-cyano-1-[4-(7H-pyrrolo[2,3-d]pyrimidin-4-yl)-1H-pyrazol-1-yl]ethyl}pyrrolidin-1-yl)-6-(2,2-difluoroethyl)pyrazine-2-carbonitrile trifluoroacetate]
